From patent publication US20230382924A1, “MODULATORS OF CYSTIC FIBROSIS TRANSMEMBRANE CONDUCTANCE REGULATOR” (VERTEX PHARMACEUTICALS INCORPORATED, priority 2020, published 2023)
Like-named read-outs stand apart in the source and are kept apart here.

Biological target: CFTR (Homo sapiens, UniProt P13569)
Test: Membrane Potential Dye, Enteroid Assay A
Format: cell-based
Settings: for EC50: read-out: Ent. A EC50
Summary of the method: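 Signal is reported as % Activity relative to a triple CFTR modulator control (3 μM + 3 μM + 300 nM acute). Read-out: membrane potential fluorescence (20 μM methyl oxonol) monitored for 15 min after chloride-free stimulation. Dye loading took 25 min at room temperature in Bath 1 buffer containing CaCC blockers.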

CFTR, sequence (P13569 with tags, fused parts or gaps DEL508-508): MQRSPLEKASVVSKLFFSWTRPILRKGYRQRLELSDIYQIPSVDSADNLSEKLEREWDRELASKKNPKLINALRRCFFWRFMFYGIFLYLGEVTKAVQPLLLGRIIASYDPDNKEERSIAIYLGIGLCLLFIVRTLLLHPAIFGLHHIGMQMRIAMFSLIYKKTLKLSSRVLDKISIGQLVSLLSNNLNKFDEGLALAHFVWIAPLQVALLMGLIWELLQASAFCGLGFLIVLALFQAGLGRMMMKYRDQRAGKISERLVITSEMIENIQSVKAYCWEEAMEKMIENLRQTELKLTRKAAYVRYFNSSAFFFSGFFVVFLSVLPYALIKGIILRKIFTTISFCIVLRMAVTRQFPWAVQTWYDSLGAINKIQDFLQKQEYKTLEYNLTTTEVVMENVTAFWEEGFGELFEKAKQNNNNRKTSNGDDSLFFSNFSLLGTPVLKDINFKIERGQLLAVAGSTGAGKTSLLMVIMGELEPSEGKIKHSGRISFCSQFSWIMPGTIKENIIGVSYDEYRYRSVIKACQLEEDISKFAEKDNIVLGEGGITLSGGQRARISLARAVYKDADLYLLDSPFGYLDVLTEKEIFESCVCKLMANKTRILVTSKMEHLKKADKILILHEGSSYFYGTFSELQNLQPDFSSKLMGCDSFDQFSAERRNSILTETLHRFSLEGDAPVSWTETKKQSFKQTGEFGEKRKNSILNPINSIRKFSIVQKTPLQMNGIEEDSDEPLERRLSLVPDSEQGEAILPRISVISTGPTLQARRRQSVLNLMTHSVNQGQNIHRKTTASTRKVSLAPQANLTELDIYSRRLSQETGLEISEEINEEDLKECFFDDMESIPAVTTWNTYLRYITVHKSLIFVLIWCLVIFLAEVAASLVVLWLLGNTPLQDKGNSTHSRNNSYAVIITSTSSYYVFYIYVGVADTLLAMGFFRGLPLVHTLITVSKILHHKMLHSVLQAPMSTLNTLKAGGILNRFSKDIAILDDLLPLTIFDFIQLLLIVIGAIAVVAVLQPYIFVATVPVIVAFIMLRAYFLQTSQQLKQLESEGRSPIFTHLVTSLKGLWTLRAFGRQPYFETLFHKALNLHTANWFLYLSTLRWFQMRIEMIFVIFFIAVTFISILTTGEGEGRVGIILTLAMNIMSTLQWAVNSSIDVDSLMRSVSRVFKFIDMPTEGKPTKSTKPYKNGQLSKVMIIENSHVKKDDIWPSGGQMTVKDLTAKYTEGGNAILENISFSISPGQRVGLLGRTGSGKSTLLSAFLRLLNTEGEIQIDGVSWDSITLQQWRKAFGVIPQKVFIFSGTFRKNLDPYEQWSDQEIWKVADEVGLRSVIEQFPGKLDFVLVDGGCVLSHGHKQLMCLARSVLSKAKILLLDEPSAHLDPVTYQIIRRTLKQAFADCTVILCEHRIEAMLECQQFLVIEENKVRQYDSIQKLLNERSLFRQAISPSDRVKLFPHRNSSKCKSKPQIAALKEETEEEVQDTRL

With `Cc1cccc(C)c1-c1cc2nc(n1)NS(=O)(=O)c1cccc(c1)C(=O)N[C@@H](c1ccccc1)CCO2` [Compound 290] the EC50 (Table 8) was 1000 to 3000 nM.

`Cc1cccc(Cc2ccccc2)c1-c1cc2nc(n1)NS(=O)(=O)c1cccc(c1)C(=O)N[C@H](CC(C)C)CO2` [Compound 168] was tested, and the “Ent. A Max Activity” value (Table 9) was “+++ (+++ is >60%)” and the EC50 (Table 9) was < 1000 nM.

`Cc1cccc(C)c1-c1cc2nc(n1)NS(=O)(=O)c1cccc(c1)CNC1C[C@@H](CN(C(=O)OCc3ccccc3)C1)O2` (stereo in doubt) [Compound 193] was tested, and the “Ent. A Max Activity” value (Enteroid Assay A) was “++ (++ is 30-60%)” and the EC50 (Enteroid Assay A) was 1000 to 3000 nM.

For `CC(C)C[C@@H]1COc2cc(-c3ccccc3OCC3CC3)nc(n2)NS(=O)(=O)c2cccc(c2)C(=O)N1` [Compound 344], the “Ent. A Max Activity” value (Enteroid Assay A) was “++ (++ is 30-60%)” and the EC50 (Enteroid Assay A) was 1000 to 3000 nM.

For `COCCOc1ccc(C2CNC(=O)c3cccc(c3)S(=O)(=O)Nc3nc(cc(-c4c(C)cccc4C)n3)O2)cc1` (stereo not shown) [Compound 120], the “Ent. A Max Activity” value (Table 8) was “+ (+ is <30%)”.

For `Cc1cccc(C)c1-c1cc2nc(n1)NS(=O)(=O)c1cccc(c1)C(=O)NC[C@@H](c1ccc(C(C)(C)C(F)(F)F)cc1)O2` [Compound 256], the “Ent. A Max Activity” value (Table 9) was “+++ (+++ is >60%)” and the EC50 (Table 9) was < 1000 nM.

For `Cc1cccc(C)c1-c1cc2nc(n1)NS(=O)(=O)c1cccc(c1)C(=O)NCC1(CCN(C[C@H]3COC(C)(C)N3C(=O)OC(C)(C)C)CC1)CO2` [Compound 439], the “Ent. A Max Activity” value (Enteroid Assay A) was “++ (++ is 30-60%)” and the EC50 (Enteroid Assay A) was 3000 to 30000 nM.

For `Cc1cccc(C)c1-c1cc2nc(n1)NS(=O)(=O)c1cccc(c1)C(=O)NC(C)(C)CO2` [Compound 348], the “Ent. A Max Activity” value (Enteroid Assay A) was “+++ (+++ is >600%)” and the EC50 (Enteroid Assay A) was 3000 to 30000 nM.

With `CCC1CCC(c2cc3nc(n2)NS(=O)(=O)c2cccc(c2)C(=O)N[C@H](CC(C)C)CO3)CC1` (stereo partly shown) [Compound 310] the EC50 (Table 8) was < 1000 nM.

With `Cc1cccc(C)c1-c1cc2nc(n1)NS(=O)(=O)c1cccc(c1)C(=O)NCC(c1ccc3ccccc3c1)O2` (stereo not shown) [Compound 253] the “Ent. A Max Activity” value (Table 8) was “+++ (+++ is >60%)” and the EC50 (Table 8) was < 1000 nM.

For `Cc1cccc(C)c1-c1cc2nc(n1)NS(=O)(=O)c1cccc(c1)C(=O)NCc1cccc(c1)O2` [Compound 197], the “Ent. A Max Activity” value (Enteroid Assay A) was “++ (++ is 30-60%)” and the EC50 (Enteroid Assay A) was 3000 to 30000 nM.

In the case of `Cc1cccc(C)c1-c1cc2nc(n1)NS(=O)(=O)c1cccc(c1)C(=O)NCC(C1CCC(C)(C)CC1)O2` (stereo not shown) [Compound 283], the “Ent. A Max Activity” value (Table 9) is reported as “+++ (+++ is >60%)” and the EC50 (Table 9) is reported as < 1000 nM.

`Cc1cccc(C)c1-c1cc2nc(n1)NS(=O)(=O)c1cccc(c1)C(=O)NC1CC(CN(CCC(C)(C)C)C1)O2` (single isomer, unassigned) [Compound 79, 5-(3,3-dimethylbutyl)-19-(2,6-dimethylphenyl)-2-oxa-15λ^6-thia-5,8,16,18,21-pentaazatetracyclo[15.3.1.13,7.110,14]tricosa-1(20),10,12,14(22),17(21),18-hexaene-9,15,15-trione] was tested, and the “Ent. A Max Activity” value (Enteroid Assay A) was “++ (++ is 30-60%)” and the EC50 (Enteroid Assay A) was < 1000 nM.

With `Cc1cccc(C)c1-c1cc2nc(n1)NS(=O)(=O)c1cccc(c1)C(=O)NC(C(=O)NCc1ccccc1)CO2` (stereo not shown) [Compound 236] the “Ent. A Max Activity” value (Table 8) was “+ (+ is <30%)”.

With `CC(C)C[C@@H]1COc2cc(C3=CCCCC3)nc(n2)NS(=O)(=O)c2cccc(c2)C(=O)N1` [Compound 327] the “Ent. A Max Activity” value (Enteroid Assay A) was “++ (++ is 30-60%)” and the EC50 (Enteroid Assay A) was 1000 to 3000 nM.

For `CC(C)C[C@@H]1COc2cc(C3CCOCC3)nc(n2)NS(=O)(=O)c2cccc(c2)C(=O)N1` [Compound 314], the “Ent. A Max Activity” value (Table 8) was “+ (+ is <30%)” and the EC50 (Table 8) was 3000 to 30000 nM.

`CC[C@H]1NC(=O)c2cccc(c2)S(=O)(=O)Nc2nc(cc(-c3c(C)cccc3C)n2)O[C@H]1c1ccc(C(C)(C)C)cc1` [Compound 132] was tested, and the “Ent. A Max Activity” value (Table 9) was “+++ (+++ is >60%)” and the EC50 (Table 9) was < 1000 nM.

For `Cc1cccc(C)c1-c1cc2nc(n1)NS(=O)(=O)c1cccc(c1)C(=O)NCC(c1ccc(C34CC(C3)C4)cc1)O2` (stereo not shown) [Compound 398], the “Ent. A Max Activity” value (Table 9) was “+++ (+++ is >60%)” and the EC50 (Table 9) was < 1000 nM.

For `Cc1cccc(C)c1-c1cc2nc(n1)NS(=O)(=O)c1cc(cc(C3CCCCC3)c1)C(=O)N[C@H](CC(C)C)CO2` [Compound 137], the “Ent. A Max Activity” value (Table 8) was “+ (+ is <30%)”.

For `Cc1cccc(C)c1-c1cc2nc(n1)NS(=O)(=O)c1cccc(c1)C(=O)NCC(c1ccc(Br)cc1)O2` (single isomer, unassigned) [Compound 20, 10-(4-bromophenyl)-6-(2,6-dimethylphenyl)-2,2-dioxo-9-oxa-2λ^6-thia-3,5,12,19-tetrazatricyclo[12.3.1.14,8]nonadeca-1(18),4(19),5,7,14,16-hexaen-13-one], the EC50 (Table 8) was < 1000 nM.

For `Cc1cccc(C)c1-c1cc2nc(n1)NS(=O)(=O)c1cccc(c1)C(=O)NCC(c1ccc([Si](C)(C)C)cc1)O2` (stereo not shown) [Compound 15, 6-(2,6-Dimethylphenyl)-2,2-dioxo-10-(4-trimethylsilylphenyl)-9-oxa-2λ^6-thia-3,5,12,19-tetrazatricyclo[12.3.1.14,8]nonadeca-1(18),4(19),5,7,14,16-hexaen-13-one], the EC50 (Table 9) was < 1000 nM.

With `Cc1cccc(C)c1-c1cc2nc(n1)NS(=O)(=O)c1cccc(c1)C(=O)NC1(CCCC1)CO2` [Compound 360] the “Ent. A Max Activity” value (Table 8) was “+++ (+++ is >60%)” and the EC50 (Table 8) was < 1000 nM.
